What was measured:
Test in all cases: relative viability (nuclei count vs DMSO), 5 days (fraction); higher = more cells survive
Tosedostat + Phenformin = compound: CC(C)C[C@@H](C(=O)N[C@H](C(=O)OC1CCCC1)c1ccccc1)[C@H](O)C(=O)NO [Tosedostat] + N=C(N)NC(=N)NCCc1ccccc1 [Phenformin] (partner 250 µM)
Outline: (§1)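 Values are medians from duplicate plates. Each reflects relative viability, defined as the nuclei count of treated wells over that of vehicle wells. Lung cancer cell lines in 1536-well plates were pin-tool dosed one day after seeding with one drug alone or with a fixed anchor-drug dose plus five library-drug doses (not always all listed) in √10 steps, then fixed, stained and imaged at 4× after 5 days.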

[1] = compound: CC1=NN=C(O1)C2=NN=C(C=C2)N3CCC(CC3)OC4=C(C=CC(=C4)F)Cl + O=C(CCCCCCC(=O)Nc1ccccc1)NO [Vorinostat] (partner 1 µM)
Outline: as §1

Tosedostat + Trametinib = compound: CC(C)C[C@@H](C(=O)N[C@H](C(=O)OC1CCCC1)c1ccccc1)[C@H](O)C(=O)NO [Tosedostat] + CC(=O)Nc1cccc(-n2c(=O)n(C3CC3)c(=O)c3c(Nc4ccc(I)cc4F)n(C)c(=O)c(C)c32)c1 [Trametinib] (partner 0.02 µM)
Outline: as §1

Tosedostat + Alpelisib = compound: CC(C)C[C@@H](C(=O)N[C@H](C(=O)OC1CCCC1)c1ccccc1)[C@H](O)C(=O)NO [Tosedostat] + Cc1nc(NC(=O)N2CCC[C@H]2C(N)=O)sc1-c1ccnc(C(C)(C)C(F)(F)F)c1 [Alpelisib] (partner 2 µM)
Outline: as §1

Cell Line | relative viability (Tosedostat + Phenformin; first compound 0.02 µM) | relative viability (Tosedostat + Phenformin; first compound 0.06325 µM) | relative viability (Tosedostat + Phenformin; first compound 0.2 µM) | relative viability (Tosedostat + Phenformin; first compound 0.6325 µM) | relative viability (Tosedostat + Phenformin; first compound 2 µM) | relative viability ([1]; first compound 0.253 µM) | relative viability ([1]; first compound 0.8 µM) | relative viability ([1]; first compound 2.53 µM) | relative viability ([1]; first compound 8 µM) | relative viability (Tosedostat + Trametinib; first compound 0.02 µM) | relative viability (Tosedostat + Trametinib; first compound 0.06325 µM) | relative viability (Tosedostat + Trametinib; first compound 0.2 µM) | relative viability (Tosedostat + Trametinib; first compound 0.6325 µM) | relative viability (Tosedostat + Trametinib; first compound 2 µM) | relative viability (Tosedostat + Alpelisib; first compound 0.02 µM) | relative viability (Tosedostat + Alpelisib; first compound 0.06325 µM) | relative viability (Tosedostat + Alpelisib; first compound 0.2 µM) | relative viability (Tosedostat + Alpelisib; first compound 0.6325 µM) | relative viability (Tosedostat + Alpelisib; first compound 2 µM)
LCLC-103H | 0.361 | 0.308 | 0.323 | 0.323 | 0.32 | 0.503 | 0.478 | 0.531 | 0.475 | 0.678 | 0.682 | 0.713 | 0.721 | 0.779 | 0.896 | 0.95 | 0.948 | 1.11 | 1.07
LK-2 | 0.38 | 0.529 | 0.455 | 0.259 | 0.347 | 0.352 | 0.256 | 0.291 | 0.295 | 0.903 | 0.819 | 0.614 | 0.628 | 0.78 | 1.55 | 1.03 | 1.13 | 1.27 | 1.11
LOU-NH91 | 0.823 | 0.742 | 0.691 | 0.677 | 0.481 | – | 0.853 | 0.807 | 0.922 | 0.787 | 0.803 | 0.824 | 0.766 | 0.777 | 0.695 | 0.704 | 0.741 | 0.706 | 0.674
LU99A | 0.925 | 0.903 | 0.821 | 0.641 | 0.547 | 0.549 | 0.456 | 0.534 | 0.563 | 0.51 | 0.47 | 0.567 | 0.544 | 0.47 | 0.633 | 0.445 | 0.501 | 0.486 | 0.477
LXF-289 | 0.495 | 0.493 | 0.479 | 0.495 | 0.399 | 0.637 | 0.418 | 0.586 | 0.463 | 0.744 | 0.651 | 0.661 | 0.703 | 0.687 | 1.03 | 1.05 | 1.03 | 1.07 | 1.1
NCI-H23 | 0.782 | 0.802 | 0.754 | 0.707 | 0.404 | 0.565 | 0.359 | 0.558 | 0.514 | 0.426 | 0.329 | 0.359 | 0.321 | 0.284 | 0.615 | 0.745 | 0.536 | 0.513 | 0.538
NCI-H322M | 0.756 | 0.705 | 0.72 | 0.704 | 0.708 | 0.812 | 0.87 | 0.948 | 0.799 | 0.548 | 0.501 | 0.452 | 0.456 | 0.467 | 0.726 | 0.902 | 0.537 | 0.755 | 0.53
NCI-H358 | 0.387 | 0.3 | 0.223 | 0.219 | 0.238 | 0.405 | 0.341 | 0.399 | 0.35 | 0.144 | 0.126 | 0.13 | 0.113 | 0.133 | 0.881 | 0.824 | 0.688 | 0.538 | 0.442
NCI-H441 | 0.861 | 0.833 | 0.569 | 0.61 | 0.713 | 0.424 | 0.384 | 0.302 | 0.382 | 0.478 | 0.579 | 0.499 | 0.562 | 0.461 | 0.749 | 0.582 | 0.597 | 0.501 | 0.534
NCI-H460 | 0.551 | 0.473 | 0.505 | 0.426 | 0.48 | 0.16 | 0.215 | 0.208 | 0.19 | 0.157 | 0.197 | 0.204 | 0.181 | 0.217 | 0.535 | 0.472 | 0.619 | 0.689 | 0.796
NCI-H520 | 0.391 | 0.593 | 0.585 | 0.712 | 0.782 | 0.561 | 0.712 | 0.569 | 0.613 | 0.731 | 0.733 | 0.645 | 0.699 | 0.67 | 0.805 | 0.807 | 0.929 | 1.12 | 0.946
NCI-H596 | 0.734 | 0.762 | 0.761 | 0.72 | 0.599 | 0.474 | 0.564 | 0.6 | 0.567 | 0.842 | 0.848 | 0.861 | 0.901 | 0.803 | 0.48 | 0.51 | 0.483 | 0.619 | 0.552
NCI-H647 | 0.56 | 0.506 | 0.45 | 0.434 | 0.39 | 0.204 | 0.136 | 0.0766 | 0.0534 | 0.452 | 0.485 | 0.425 | 0.622 | 0.515 | 1.3 | 1.13 | 1.02 | 1.09 | 1.14
NCI-H650 | 0.497 | 0.478 | 0.435 | 0.442 | 0.405 | 0.451 | 0.248 | 0.294 | 0.329 | 1.04 | 1.03 | 0.852 | 0.924 | 0.836 | 1 | 1.15 | 1.14 | 0.97 | 0.683
NCI-H661 | 0.259 | 0.259 | 0.312 | 0.304 | 0.265 | 0.802 | 0.745 | 0.702 | 0.629 | 0.688 | 0.596 | 0.579 | 0.613 | 0.637 | 0.736 | 0.627 | 0.428 | 0.594 | 0.531
NCI-H727 | 0.705 | 0.485 | – | 0.442 | 0.397 | 1.16 | 1.02 | 1.38 | 1.22 | 0.398 | 0.37 | 0.413 | 0.412 | 0.376 | 0.665 | 0.569 | 0.472 | 0.41 | 0.364
NCI-H838 | 0.489 | 0.56 | 0.519 | 0.659 | 0.711 | 0.583 | 0.599 | 0.607 | 0.623 | 0.559 | 0.446 | 0.52 | 0.596 | 0.59 | 1.03 | 0.903 | 1 | 1.04 | 1.17
